Source: ChEMBL document CHEMBL1201862, “PubChem BioAssay data set” (2004)
Active and inactive are the calls of the source.

Assays:
[1] = target: G-protein coupled receptor 35 (Homo sapiens, UniProt Q9HC97); assay: GPR35 antagonists blocking zaprinast-driven arrestin recruitment, primary screen, imaging, U2OS, beta-arrestin-GFP, zaprinast agonist (AID 2058); format: functional;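 also: antagonist potency meaning inhibition of agonist-induced arrestin redistribution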
[2] = target: T1, Heat shock factor protein 1 (Mus musculus, UniProt P38532); assay: inhibition of MG132-induced HSE-luciferase signal, confirmation, cell-based, NIH3T3, luminescence, dose retest (AID 2382); format: functional;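 also: NIH3T3 fibroblasts with HSF1-driven luciferase reporter stressed by proteasome inhibitor MG132; luminescence from HSF1-driven luciferase expression after 8 hours of MG132 stress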
T1 sequence (P38532 whole entry): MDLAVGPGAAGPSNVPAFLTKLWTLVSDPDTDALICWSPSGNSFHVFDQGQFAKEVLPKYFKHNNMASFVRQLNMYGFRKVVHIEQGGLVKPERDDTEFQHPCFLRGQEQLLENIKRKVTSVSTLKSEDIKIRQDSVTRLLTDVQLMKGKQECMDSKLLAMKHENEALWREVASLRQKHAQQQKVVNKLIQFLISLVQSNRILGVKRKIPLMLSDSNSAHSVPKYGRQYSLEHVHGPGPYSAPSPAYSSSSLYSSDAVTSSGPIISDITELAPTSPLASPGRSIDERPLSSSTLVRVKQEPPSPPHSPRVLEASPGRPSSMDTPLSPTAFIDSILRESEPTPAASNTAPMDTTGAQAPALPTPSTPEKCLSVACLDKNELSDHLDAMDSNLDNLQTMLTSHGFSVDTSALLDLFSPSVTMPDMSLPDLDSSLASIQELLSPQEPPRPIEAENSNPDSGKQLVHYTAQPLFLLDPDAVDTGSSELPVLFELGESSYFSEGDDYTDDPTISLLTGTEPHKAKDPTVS

HEK293 [3] = assay: NOD1 signaling inhibitors, primary screen, cell-based, luminescence, uHTS (AID 1578); format: functional; conditions: Homo sapiens
HEK293 [4] = assay: cells; format: functional, cell-based; conditions: Homo sapiens
HEK293 [5] = assay: cells; format: functional, cell-based; conditions: Homo sapiens; remark: listed apart in the source
[6] = target: T2, Nucleotide-binding oligomerization domain-containing protein 2 (Homo sapiens, UniProt Q9HC29); assay: NOD2 signaling inhibitors, cell-based, luminescence, uHTS, HEK293 (AID 1566); format: functional
HEK293 [7] = assay: NOD2 signaling inhibitors in MDP-stimulated cells, cell-based, uHTS, luminescence (AID 2001); format: functional; conditions: Homo sapiens
HEK293 [8] = assay: cells; format: functional, cell-based; conditions: Homo sapiens; remark: listed apart in the source
Tumor necrosis factor = Tumor necrosis factor (Homo sapiens, UniProt P01375); assay: TNFa-triggered NF-kB activation inhibitors, SAR follow-up, cell-based, revised (AID 2337); format: functional
[9] = target: T3, Nucleotide-binding oligomerization domain-containing protein 1 (Homo sapiens, UniProt Q9Y239); assay: NOD1 signaling inhibitors, SAR follow-up, revised (AID 2333); format: functional
T3 sequence (Q9Y239 whole entry): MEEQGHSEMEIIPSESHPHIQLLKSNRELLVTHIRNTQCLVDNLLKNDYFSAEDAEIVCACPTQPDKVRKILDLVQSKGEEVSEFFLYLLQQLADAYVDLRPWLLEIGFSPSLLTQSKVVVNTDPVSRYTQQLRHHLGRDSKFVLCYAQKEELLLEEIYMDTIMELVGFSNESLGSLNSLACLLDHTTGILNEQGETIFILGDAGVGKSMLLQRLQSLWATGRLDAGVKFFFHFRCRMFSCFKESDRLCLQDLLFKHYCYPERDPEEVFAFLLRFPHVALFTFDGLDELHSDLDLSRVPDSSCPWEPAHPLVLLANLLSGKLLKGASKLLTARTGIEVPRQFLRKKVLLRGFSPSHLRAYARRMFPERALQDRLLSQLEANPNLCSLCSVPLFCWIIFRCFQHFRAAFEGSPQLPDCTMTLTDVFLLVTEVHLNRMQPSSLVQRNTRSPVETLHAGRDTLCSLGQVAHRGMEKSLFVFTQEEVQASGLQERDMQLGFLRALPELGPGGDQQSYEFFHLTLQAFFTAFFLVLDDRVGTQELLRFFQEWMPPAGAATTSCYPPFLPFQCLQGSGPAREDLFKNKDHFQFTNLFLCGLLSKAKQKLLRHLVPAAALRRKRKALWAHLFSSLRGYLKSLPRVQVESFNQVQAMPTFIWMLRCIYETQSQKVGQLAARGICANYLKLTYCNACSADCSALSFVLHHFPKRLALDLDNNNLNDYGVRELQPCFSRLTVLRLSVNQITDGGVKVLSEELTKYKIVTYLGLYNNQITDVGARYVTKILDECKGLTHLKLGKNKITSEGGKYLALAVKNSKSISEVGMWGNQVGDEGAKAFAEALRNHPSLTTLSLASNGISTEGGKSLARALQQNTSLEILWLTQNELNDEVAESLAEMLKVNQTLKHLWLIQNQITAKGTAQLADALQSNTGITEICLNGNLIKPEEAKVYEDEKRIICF

Nonstructural protein 1 = Nonstructural protein 1 (Influenza A virus, UniProt Q194T2); format: functional, Influenza A virus (A/California/07/2009(H1N1))
[10] = target: T2, Nucleotide-binding oligomerization domain-containing protein 2; assay: PubChem AID 2334; format: functional
HEK293 [11] = assay: cells; conditions: Homo sapiens
Hexokinase HKDC1 = target: T4, Hexokinase HKDC1 (Homo sapiens, UniProt Q2TB90); assay: HKDC1 hexokinase inhibitors, dose response, biochemical, W721R variant (AID 504729); format: functional
T4 sequence (Q2TB90 whole entry): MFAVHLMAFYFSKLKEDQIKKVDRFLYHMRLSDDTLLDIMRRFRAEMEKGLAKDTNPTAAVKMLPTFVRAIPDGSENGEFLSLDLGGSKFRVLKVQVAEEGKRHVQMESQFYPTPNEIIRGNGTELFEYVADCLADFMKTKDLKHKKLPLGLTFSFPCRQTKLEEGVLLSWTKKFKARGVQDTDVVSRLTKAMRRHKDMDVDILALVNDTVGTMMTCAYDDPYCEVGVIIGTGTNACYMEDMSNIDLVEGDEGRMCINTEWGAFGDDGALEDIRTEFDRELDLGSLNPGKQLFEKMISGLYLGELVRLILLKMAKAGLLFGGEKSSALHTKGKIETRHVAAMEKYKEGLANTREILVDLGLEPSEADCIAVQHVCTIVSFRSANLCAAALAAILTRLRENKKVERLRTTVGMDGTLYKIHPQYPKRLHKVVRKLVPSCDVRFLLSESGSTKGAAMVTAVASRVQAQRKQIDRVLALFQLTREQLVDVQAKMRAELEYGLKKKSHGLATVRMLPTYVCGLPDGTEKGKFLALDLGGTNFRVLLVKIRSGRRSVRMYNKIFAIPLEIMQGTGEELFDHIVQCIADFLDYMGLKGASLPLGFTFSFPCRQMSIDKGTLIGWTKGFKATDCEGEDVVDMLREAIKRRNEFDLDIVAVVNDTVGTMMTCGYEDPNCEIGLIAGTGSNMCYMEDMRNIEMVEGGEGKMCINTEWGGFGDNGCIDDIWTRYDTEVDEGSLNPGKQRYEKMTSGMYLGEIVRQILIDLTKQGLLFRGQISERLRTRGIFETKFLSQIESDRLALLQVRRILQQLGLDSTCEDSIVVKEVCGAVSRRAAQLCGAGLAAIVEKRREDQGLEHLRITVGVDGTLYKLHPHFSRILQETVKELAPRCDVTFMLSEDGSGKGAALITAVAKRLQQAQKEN

T2 sequence (Q9HC29 whole entry, the tested form may be a part): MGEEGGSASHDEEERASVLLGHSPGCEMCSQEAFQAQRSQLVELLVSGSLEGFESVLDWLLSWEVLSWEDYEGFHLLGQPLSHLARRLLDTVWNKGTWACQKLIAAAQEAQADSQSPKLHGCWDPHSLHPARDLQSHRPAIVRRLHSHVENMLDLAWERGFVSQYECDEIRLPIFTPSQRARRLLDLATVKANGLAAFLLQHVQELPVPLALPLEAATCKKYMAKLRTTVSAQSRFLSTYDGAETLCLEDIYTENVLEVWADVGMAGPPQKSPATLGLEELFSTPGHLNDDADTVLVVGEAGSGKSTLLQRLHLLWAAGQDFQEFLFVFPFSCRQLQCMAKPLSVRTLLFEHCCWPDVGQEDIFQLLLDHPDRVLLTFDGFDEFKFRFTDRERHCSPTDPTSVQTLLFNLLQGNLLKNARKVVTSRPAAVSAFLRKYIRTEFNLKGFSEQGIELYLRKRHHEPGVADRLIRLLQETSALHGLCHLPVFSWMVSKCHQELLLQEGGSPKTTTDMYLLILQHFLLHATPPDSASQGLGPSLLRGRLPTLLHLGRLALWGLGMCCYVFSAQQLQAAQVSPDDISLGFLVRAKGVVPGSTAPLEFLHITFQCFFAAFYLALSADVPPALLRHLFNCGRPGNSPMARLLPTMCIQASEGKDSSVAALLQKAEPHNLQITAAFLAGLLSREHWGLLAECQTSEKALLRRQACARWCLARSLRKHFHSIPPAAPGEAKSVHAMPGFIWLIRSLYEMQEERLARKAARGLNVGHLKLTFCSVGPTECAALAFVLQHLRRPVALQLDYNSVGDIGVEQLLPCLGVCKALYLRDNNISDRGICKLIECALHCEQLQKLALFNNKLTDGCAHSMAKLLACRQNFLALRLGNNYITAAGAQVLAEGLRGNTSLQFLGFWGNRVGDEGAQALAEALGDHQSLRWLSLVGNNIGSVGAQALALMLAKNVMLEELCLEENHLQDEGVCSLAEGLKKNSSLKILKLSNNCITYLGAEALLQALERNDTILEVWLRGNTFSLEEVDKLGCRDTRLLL
Chain of Tumor necrosis factor (P01375 whole entry, the tested form may be a part): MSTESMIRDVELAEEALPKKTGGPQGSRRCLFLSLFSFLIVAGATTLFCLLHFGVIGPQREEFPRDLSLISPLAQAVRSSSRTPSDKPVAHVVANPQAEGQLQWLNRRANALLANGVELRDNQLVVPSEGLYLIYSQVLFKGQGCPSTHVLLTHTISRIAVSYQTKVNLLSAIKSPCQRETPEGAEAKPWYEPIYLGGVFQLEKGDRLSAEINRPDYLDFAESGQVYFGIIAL
Chain of G-protein coupled receptor 35 (Q9HC97 whole entry): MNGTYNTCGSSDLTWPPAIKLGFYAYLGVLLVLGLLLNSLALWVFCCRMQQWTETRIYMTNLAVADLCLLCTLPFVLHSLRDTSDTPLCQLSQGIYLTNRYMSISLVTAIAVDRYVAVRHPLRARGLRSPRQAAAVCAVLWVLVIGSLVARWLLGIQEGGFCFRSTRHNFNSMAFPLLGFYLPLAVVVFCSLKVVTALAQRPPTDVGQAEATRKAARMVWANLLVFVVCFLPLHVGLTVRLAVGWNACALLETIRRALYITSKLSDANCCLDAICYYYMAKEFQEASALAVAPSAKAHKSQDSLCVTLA
Chain of Nonstructural protein 1 (Q194T2 whole entry, the tested form may be a part): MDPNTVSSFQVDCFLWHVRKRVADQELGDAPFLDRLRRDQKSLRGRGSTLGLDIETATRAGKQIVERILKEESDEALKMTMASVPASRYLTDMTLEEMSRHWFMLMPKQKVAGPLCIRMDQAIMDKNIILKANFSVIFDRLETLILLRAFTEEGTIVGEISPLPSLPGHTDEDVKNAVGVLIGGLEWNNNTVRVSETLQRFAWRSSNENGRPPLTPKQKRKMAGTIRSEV

| SMILES | IC50 (Tumor necrosis factor) | IC50 [9] | IC50 [10] | IC50 (HEK293 [11]) | other results |
| --- | --- | --- | --- | --- | --- |
| CC(=O)c1ccc(NC(=O)C(C)n2nc(-c3ccccc3)c3cc(Cl)ccc32)cc1 (configuration not stated) | – | – | – | – | IC50 [1]: 1.78 µM (active); EC50 [2]: > 195 µM (not active) |
| N#CC(c1ccccc1)c1ccc2c(C(F)(F)F)cc(C(F)(F)F)nc2n1 (configuration not stated) | 5.88 µM (active) | 3.71 µM (active) | 3.99 µM (active) | > 20 µM (inactive) | EC50 (HEK293 [3]): 4.36 µM (active); IC50 (HEK293 [4]): 15.4 µM (active); IC50 (HEK293 [5]): > 20 µM (inactive); EC50 [6]: 13.4 µM (active); IC50 (HEK293 [7]): > 20 µM (inactive); IC50 (HEK293 [8]): > 20 µM (inactive); IC50 (Nonstructural protein 1): 21.3 µM (active) |
| Cc1cc(C(=O)NC2CCCc3c2cnn3-c2ccccc2F)n(C)n1 (configuration not stated) | > 20 µM (inactive) | 0.146 µM (active) | > 20 µM (inactive) | > 20 µM (inactive) | – |
| O=C(Nc1ccc(Cl)cc1)c1ccc(CCN2CCc3ccccc3C2)cc1 | > 20 µM (inactive) | > 20 µM (inactive) | > 20 µM (inactive) | > 20 µM (inactive) | – |
| COc1ccc2cc(CCNC(=O)c3ccc(S(=O)(=O)N4CCCC4)cc3)c(O)nc2c1 | – | – | – | – | IC50 (Hexokinase HKDC1): 7.58 µM (active) |
